From patent publication US20130053430A1, “MODULATION OF CETP EXPRESSION” (Isis Pharmaceuticals, Inc., priority 2010, published 2013)
e = 2'-O-(2-methoxyethyl) (MOE); d = 2'-deoxy (DNA)

Legend:
[1] = test system: human CETP mRNA; assay: Dose-dependent antisense inhibition of human CETP in SW872 liposarcoma cells (Example 2); type: cell-based; conditions: Lipofectin, ~16 hours (Example 2)
Protocol: (§1) Cells were plated at a density of 50,000 cells per well in a 24-well plate and transfected using Lipofectin reagent with 50 nM, 150 nM, and 300 nM concentrations of each antisense oligonucleotide. After approximately 16 hours, RNA was isolated from the cells and CETP mRNA levels were measured by quantitative real-time PCR. CETP mRNA levels were normalized to total RNA content, as measured by the house-keeping gene, GAPDH mRNA levels. Results are presented in Table 4 as percent inhibition of CETP, relative to untreated control cells.

[2] = test system: human CETP mRNA; assay: Dose-dependent antisense inhibition of human CETP in SW872 liposarcoma cells (Example 3); type: cell-based; conditions: Lipofectin, ~16 hours (Example 3)
Protocol: as §1, with “ISIS 17291 ([…], 6-8-6 MOE (SEQ ID NO: 115)), ISIS 17302 ([…], 6-8-6 MOE (SEQ ID NO: 116)), and ISIS 17305 ([…], 6-8-6 MOE (SEQ ID NO: 117), first disclosed in U.S. Ser. No. 11/031,827 (incorporated by reference herein), were also tested under the same conditions. Cells” for “Cells”, “Table 5” for “Table 4”

[3] = Liver function, plasma ALT and AST (Example 8); type: in vivo; conditions: huCETP transgenic mice, Western diet; 25 mg/kg s.c. twice per week for 2 weeks
From the text: (§2) The mice were divided into two groups of 4-6 mice each.

[4] = test system: CETP protein; assay: Plasma CETP protein by ELISA (Example 8); type: in vivo, human; conditions: huCETP transgenic mice, Western diet; 25 mg/kg s.c. twice per week for 2 weeks; relative to PBS control
Protocol: as §2
Plasma CETP protein levels were measured by ELISA (Alpco). […] The results are expressed as percent inhibition of CETP protein, relative to the PBS control.

[5] = test system: CETP activity; assay: CETP activity assay kit (Example 8); type: in vivo, human; conditions: huCETP transgenic mice, Western diet; 25 mg/kg s.c. twice per week for 2 weeks; relative to PBS control
Protocol: as §2
CETP activity levels were measured using a CETP activity assay kit (Roar Biomedical Inc., New York, N.Y.). […] The results are expressed as percent inhibition of CETP activity, relative to the PBS control.

[6] = mouse, in vivo, sc, 25 mg/kg
From the text: The saline-injected group served as the control group to which oligonucleotide-treated groups were compared. […] This group served a negative control for the effects of the antisense oligonucleotides against CETP. The groups are further described in Table 27, and are designated letters A-F, by which they will be referred from henceforth.

[7] = Plasma cholesterol and triglyceride levels (Example 8); type: in vivo; conditions: huCETP transgenic mice, Western diet
Protocol: as §2
Plasma cholesterol were extracted at week 6 by the method of Bligh and Dyer (Bligh, E. G. and Dyer, W. J. Can. J. Biochem. Physiol. 37: 911-917, 1959) and measured with an Olympus clinical analyzer (Hitachi Olympus AU400e, Melville, N.Y.). HDL and LDL cholesterol were individually measured by HPLC. Triglyceride levels were measured with the use of a commercially available triglyceride kit (DCL Triglyceride Reagent; Diagnostic Chemicals Ltd., Charlottetown, Canada). The results are presented in Table 41 and are expressed in mg/dL.

[8] = 25 mg/kg s.c. twice per week for 2 weeks

ISIS 349517: 5-10-5 MOE gapmer CAGCACTTTAATGCCAGTGG (sugars from the 5' end e5 d10 e5, backbone and methylation of C not given here)
percent inhibition of CETP ([1]; 50 nM): 100%
percent inhibition of CETP ([1]; 150 nM): 98%
percent inhibition of CETP ([1]; 300 nM): 98%
percent inhibition of CETP ([2]; 50 nM): 76%
percent inhibition of CETP ([2]; 150 nM): 91%
percent inhibition of CETP ([2]; 300 nM): 93%
Transaminase levels, ALT [3]: 26 IU/L
Transaminase levels, AST [3]: 38 IU/L
Percent inhibition of plasma CETP protein levels [4]: 96%
Percent inhibition of CETP activity [5]: 73%
Organ weights, Kidney [6]: 0.39
Organ weights, Liver [6]: 1.51
Organ weights, Spleen [6]: 0.09
HDL % at week 0 [7, 8]: 39%
HDL cholesterol [7, 8]: 155 mg/dL
LDL Cholesterol [7, 8]: 48 mg/dL
Total cholesterol [7, 8]: 212 mg/dL
Triglycerides [7, 8]: 58 mg/dL
increase in HDL levels compared to the PBS control ([7]; 25 mg/kg s.c. twice per week, on week 3): 30%
